Measurements taken from ChEMBL document CHEMBL2074178, “Passive permeability and P-glycoprotein-mediated efflux differentiate central nervous system (CNS) and non-CNS marketed drugs” (J Pharmacol Exp Ther, 2002).

Tests used:
[1] = target: T1, ATP-dependent translocase ABCB1 (Homo sapiens, UniProt P08183); experiment: TP_TRANSPORTER: increase in Calcein-AM intracellular accumulation (Calcein-AM: ? uM, Sumatriptan: 100 uM) in MDR1-expressing MDCKII cells; assay type: functional, cell-based; settings: dog, mdck-ii
T1 sequence (P08183 whole entry): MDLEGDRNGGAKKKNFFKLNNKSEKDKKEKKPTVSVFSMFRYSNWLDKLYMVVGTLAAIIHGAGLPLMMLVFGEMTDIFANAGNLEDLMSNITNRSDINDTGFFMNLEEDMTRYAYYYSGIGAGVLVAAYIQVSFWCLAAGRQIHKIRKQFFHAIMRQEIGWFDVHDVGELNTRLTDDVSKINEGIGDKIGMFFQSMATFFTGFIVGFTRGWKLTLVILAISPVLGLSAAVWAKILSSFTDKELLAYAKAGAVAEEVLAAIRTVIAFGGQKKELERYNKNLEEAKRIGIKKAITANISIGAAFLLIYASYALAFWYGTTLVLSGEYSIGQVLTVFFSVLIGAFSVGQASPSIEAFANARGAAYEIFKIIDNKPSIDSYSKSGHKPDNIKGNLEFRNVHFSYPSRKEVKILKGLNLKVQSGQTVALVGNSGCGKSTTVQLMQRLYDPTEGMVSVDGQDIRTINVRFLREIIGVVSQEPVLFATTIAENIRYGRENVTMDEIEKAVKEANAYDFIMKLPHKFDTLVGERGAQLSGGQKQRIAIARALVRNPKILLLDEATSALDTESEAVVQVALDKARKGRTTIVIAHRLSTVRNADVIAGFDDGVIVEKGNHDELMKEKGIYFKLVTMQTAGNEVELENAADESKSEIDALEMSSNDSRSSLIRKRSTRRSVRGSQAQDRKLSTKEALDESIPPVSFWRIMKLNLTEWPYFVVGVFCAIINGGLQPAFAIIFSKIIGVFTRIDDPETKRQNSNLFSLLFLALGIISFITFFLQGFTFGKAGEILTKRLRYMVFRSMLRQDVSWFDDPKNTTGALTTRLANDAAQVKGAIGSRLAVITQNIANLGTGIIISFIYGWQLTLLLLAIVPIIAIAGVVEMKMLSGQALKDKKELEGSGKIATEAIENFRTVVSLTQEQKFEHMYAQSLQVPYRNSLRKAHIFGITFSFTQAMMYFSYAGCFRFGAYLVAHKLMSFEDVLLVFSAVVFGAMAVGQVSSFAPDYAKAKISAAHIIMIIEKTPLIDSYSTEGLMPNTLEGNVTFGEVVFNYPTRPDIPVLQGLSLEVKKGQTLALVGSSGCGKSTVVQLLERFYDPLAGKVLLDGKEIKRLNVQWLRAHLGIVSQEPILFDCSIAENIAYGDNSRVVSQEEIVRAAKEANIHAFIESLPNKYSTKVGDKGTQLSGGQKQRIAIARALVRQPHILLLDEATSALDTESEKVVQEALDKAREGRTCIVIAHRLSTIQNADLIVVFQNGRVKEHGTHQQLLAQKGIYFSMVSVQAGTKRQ

[2] = target: T1, ATP-dependent translocase ABCB1; experiment: TP_TRANSPORTER: transepithelial transport (basal to apical) in MDR1-expressing MDCKII cells; assay type: functional, cell-based; settings: dog, mdck-ii
[3] = target: T2, MDR1 (P-glycoprotein, ABCB1) (Homo sapiens, UniProt P08183); experiment: TP_TRANSPORTER: increase in Calcein-AM intracellular accumulation (Calcein-AM: ? uM, Amitriptyline: 100 uM) in MDR1-expressing MDCKII cells; assay type: functional, cell-based, MDCK-II; settings: dog, probe Calcein-AM
T2 sequence (P08183 whole entry): as above

[4] = target: T1, ATP-dependent translocase ABCB1; experiment: TP_TRANSPORTER: increase in Calcein-AM intracellular accumulation (Calcein-AM: ? uM, Biperiden: 100 uM) in MDR1-expressing MDCKII cells; assay type: functional, cell-based; settings: dog, mdck-ii
[5] = target: T2, MDR1 (P-glycoprotein, ABCB1); experiment: TP_TRANSPORTER: increase in Calcein-AM intracellular accumulation (Calcein-AM: ? uM, Buspirone: 100 uM) in MDR1-expressing MDCKII cells; assay type: functional, cell-based, MDCK-II; settings: dog, probe Calcein-AM
[6] = target: T1, ATP-dependent translocase ABCB1; experiment: TP_TRANSPORTER: increase in Calcein-AM intracellular accumulation (Calcein-AM: ? uM, Carbamazepine: 100 uM) in MDR1-expressing MDCKII cells; assay type: functional, cell-based; settings: dog, mdck-ii
[7] = target: T2, MDR1 (P-glycoprotein, ABCB1); experiment: TP_TRANSPORTER: increase in Calcein-AM intracellular accumulation (Calcein-AM: ? uM, Chlorprothixene: 100 uM) in MDR1-expressing MDCKII cells; assay type: functional, cell-based, MDCK-II; settings: dog, probe Calcein-AM
[8] = target: T2, MDR1 (P-glycoprotein, ABCB1); experiment: TP_TRANSPORTER: increase in Calcein-AM intracellular accumulation (Calcein-AM: ? uM, Clomipramine: 100 uM) in MDR1-expressing MDCKII cells; assay type: functional, cell-based, MDCK-II; settings: dog, probe Calcein-AM
[9] = target: T2, MDR1 (P-glycoprotein, ABCB1); experiment: TP_TRANSPORTER: increase in Calcein-AM intracellular accumulation (Calcein-AM: ? uM, Desipramine: 100 uM) in MDR1-expressing MDCKII cells; assay type: functional, cell-based, MDCK-II; settings: dog, probe Calcein-AM
[10] = target: T2, MDR1 (P-glycoprotein, ABCB1); experiment: TP_TRANSPORTER: increase in Calcein-AM intracellular accumulation (Calcein-AM: ? uM, Doxepin: 100 uM) in MDR1-expressing MDCKII cells; assay type: functional, cell-based, MDCK-II; settings: dog, probe Calcein-AM
[11] = target: T1, ATP-dependent translocase ABCB1; experiment: TP_TRANSPORTER: increase in Calcein-AM intracellular accumulation (Calcein-AM: ? uM, Flumazenil: 100 uM) in MDR1-expressing MDCKII cells; assay type: functional, cell-based; settings: dog, mdck-ii
[12] = target: T2, MDR1 (P-glycoprotein, ABCB1); experiment: TP_TRANSPORTER: increase in Calcein-AM intracellular accumulation (Calcein-AM: ? uM, […]: 100 uM) in MDR1-expressing MDCKII cells; assay type: functional, cell-based, MDCK-II; settings: dog, probe Calcein-AM
[13] = target: T2, MDR1 (P-glycoprotein, ABCB1); experiment: TP_TRANSPORTER: increase in Calcein-AM intracellular accumulation (Calcein-AM: ? uM, Fluvoxamine: 100 uM) in MDR1-expressing MDCKII cells; assay type: functional, cell-based, MDCK-II; settings: dog, probe Calcein-AM
[14] = target: T2, MDR1 (P-glycoprotein, ABCB1); experiment: TP_TRANSPORTER: increase in Calcein-AM intracellular accumulation (Calcein-AM: ? uM, Haloperidol: 100 uM) in MDR1-expressing MDCKII cells; assay type: functional, cell-based, MDCK-II; settings: dog, probe Calcein-AM
[15] = target: T1, ATP-dependent translocase ABCB1; experiment: TP_TRANSPORTER: increase in Calcein-AM intracellular accumulation (Calcein-AM: ? uM, Imipramine: 100 uM) in MDR1-expressing MDCKII cells; assay type: functional, cell-based; settings: dog, mdck-ii
[16] = target: T1, ATP-dependent translocase ABCB1; experiment: TP_TRANSPORTER: increase in Calcein-AM intracellular accumulation (Calcein-AM: ? uM, Ketamine: 100 uM) in MDR1-expressing MDCKII cells; assay type: functional, cell-based; settings: dog, mdck-ii
[17] = target: T2, MDR1 (P-glycoprotein, ABCB1); experiment: TP_TRANSPORTER: increase in Calcein-AM intracellular accumulation (Calcein-AM: ? uM, Maprotiline: 100 uM) in MDR1-expressing MDCKII cells; settings: dog, probe Calcein-AM
[18] = target: T1, ATP-dependent translocase ABCB1; experiment: TP_TRANSPORTER: increase in Calcein-AM intracellular accumulation (Calcein-AM: ? uM, Meprobamate: 100 uM) in MDR1-expressing MDCKII cells; assay type: functional, cell-based; settings: dog, mdck-ii
[19] = target: T2, MDR1 (P-glycoprotein, ABCB1); experiment: TP_TRANSPORTER: increase in Calcein-AM intracellular accumulation (Calcein-AM: ? uM, Metergoline: 100 uM) in MDR1-expressing MDCKII cells; assay type: functional, cell-based, MDCK-II; settings: dog, probe Calcein-AM
[20] = target: T1, ATP-dependent translocase ABCB1; experiment: TP_TRANSPORTER: increase in Calcein-AM intracellular accumulation (Calcein-AM: ? uM, Naltrexone: 100 uM) in MDR1-expressing MDCKII cells; assay type: functional, cell-based; settings: dog, mdck-ii
[21] = target: T1, ATP-dependent translocase ABCB1; experiment: TP_TRANSPORTER: increase in Calcein-AM intracellular accumulation (Calcein-AM: ? uM, Nitrazepam: 100 uM) in MDR1-expressing MDCKII cells; assay type: functional, cell-based; settings: dog, mdck-ii
[22] = target: T1, ATP-dependent translocase ABCB1; experiment: TP_TRANSPORTER: increase in Calcein-AM intracellular accumulation (Calcein-AM: ? uM, Nordazepam: 100 uM) in MDR1-expressing MDCKII cells; assay type: functional, cell-based; settings: dog, mdck-ii
[23] = target: T1, ATP-dependent translocase ABCB1; experiment: TP_TRANSPORTER: increase in Calcein-AM intracellular accumulation (Calcein-AM: ? uM, Selegiline: 100 uM) in MDR1-expressing MDCKII cells; assay type: functional, cell-based; settings: dog, mdck-ii
[24] = target: T1, ATP-dependent translocase ABCB1; experiment: TP_TRANSPORTER: increase in Calcein-AM intracellular accumulation (Calcein-AM: ? uM, Zimeldine: 100 uM) in MDR1-expressing MDCKII cells; assay type: functional, cell-based; settings: dog, mdck-ii

Row | Structure (SMILES) | Activity [2] | further results
1 | CNS(=O)(=O)Cc1ccc2[nH]cc(CCN(C)C)c2c1 | is not a substrate [-] | Activity [1]: is not an inhibitor [-]
2 | CN(C)CCC=C1c2ccccc2CCc2ccccc21 [AMITRIPTYLINE] | is not a substrate [-] | inhibition at 100 µM [3]: 25.5%
3 | OC(CCN1CCCCC1)(c1ccccc1)C1CC2C=CC1C2 (stereo not given) [BIPERIDEN] | is not a substrate [-] | Activity [4]: is not an inhibitor [-]
4 | CC(C)C[C@H]1C(=O)N2CCC[C@H]2[C@]2(O)O[C@](NC(=O)[C@@H]3C=C4c5cccc6[nH]c(Br)c(c56)C[C@H]4N(C)C3)(C(C)C)C(=O)N12 [BROMOCRIPTINE] | is not a substrate [-] | 
5 | O=C1CC2(CCCC2)CC(=O)N1CCCCN1CCN(c2ncccn2)CC1 [BUSPIRONE] | is not a substrate [-] | inhibition at 100 µM [5]: 24.1%
6 | NC(=O)N1c2ccccc2C=Cc2ccccc21 [CARBAMAZEPINE] | is not a substrate [-] | Activity [6]: is not an inhibitor [-]
7 | CN(C)CC/C=C1/c2ccccc2Sc2ccc(Cl)cc21 [CHLORPROTHIXENE] | is not a substrate [-] | inhibition at 100 µM [7]: 57.5%
8 | CN(C)CCCN1c2ccccc2CCc2ccc(Cl)cc21 [CLOMIPRAMINE] | is not a substrate [-] | inhibition at 100 µM [8]: 48.2%
9 | CNCCCN1c2ccccc2CCc2ccccc21 [DESIPRAMINE] | is not a substrate [-] | inhibition at 100 µM [9]: 12.8%
10 | CN(C)CCC=C1c2ccccc2COc2ccccc21 [DOXEPIN] | is not a substrate [-] | inhibition at 100 µM [10]: 15.3%
11 | CCOC(=O)c1ncn2c1CN(C)C(=O)c1cc(F)ccc1-2 [FLUMAZENIL] | is not a substrate [-] | Activity [11]: is not an inhibitor [-]
12 | CCN(CC)CCN1C(=O)CN=C(c2ccccc2F)c2cc(Cl)ccc21 [FLURAZEPAM] | is not a substrate [-] | inhibition at 100 µM [12]: 22.6%
13 | COCCCC/C(=N\OCCN)c1ccc(C(F)(F)F)cc1 [FLUVOXAMINE] | is not a substrate [-] | inhibition at 100 µM [13]: 20.8%
14 | O=C(CCCN1CCC(O)(c2ccc(Cl)cc2)CC1)c1ccc(F)cc1 [HALOPERIDOL] | is not a substrate [-] | inhibition at 100 µM [14]: 37.2%
15 | CN(C)CCCN1c2ccccc2CCc2ccccc21 [IMIPRAMINE] | is not a substrate [-] | Activity [15]: is not an inhibitor [-]
16 | CNC1(c2ccccc2Cl)CCCCC1=O (stereo not given) [KETAMINE] | is not a substrate [-] | Activity [16]: is not an inhibitor [-]
17 | CNCCCC12CCC(c3ccccc31)c1ccccc12 [MAPROTILINE] | is not a substrate [-] | inhibition at 100 µM [17]: 36.7%
18 | CCCC(C)(COC(N)=O)COC(N)=O [MEPROBAMATE] | is not a substrate [-] | Activity [18]: is not an inhibitor [-]
19 | CN1C[C@H](CNC(=O)OCc2ccccc2)C[C@@H]2c3cccc4c3c(cn4C)C[C@H]21 [METERGOLINE] | is not a substrate [-] | inhibition at 100 µM [19]: 84.4%
20 | Cc1ncc2n1-c1ccc(Cl)cc1C(c1ccccc1F)=NC2 [MIDAZOLAM] | is not a substrate [-] | 
21 | C=CCN1CC[C@]23c4c5ccc(O)c4O[C@H]2C(=O)CC[C@@]3(O)[C@H]1C5 [NALOXONE] | is not a substrate [-] | 
22 | O=C1CC[C@@]2(O)[C@H]3Cc4ccc(O)c5c4[C@@]2(CCN3CC2CC2)[C@H]1O5 [NALTREXONE] | is not a substrate [-] | Activity [20]: is not an inhibitor [-]
23 | O=C1CN=C(c2ccccc2)c2cc([N+](=O)[O-])ccc2N1 [NITRAZEPAM] | is not a substrate [-] | Activity [21]: is not an inhibitor [-]
24 | O=C1CN=C(c2ccccc2)c2cc(Cl)ccc2N1 [NORDAZEPAM] | is not a substrate [-] | Activity [22]: is not an inhibitor [-]
25 | C#CCN(C)[C@H](C)Cc1ccccc1 [SELEGILINE] | is not a substrate [-] | Activity [23]: is not an inhibitor [-]
26 | Nc1c2c(nc3ccccc13)CCCC2 [TACRINE] | is not a substrate [-] | 
27 | CN(C)C/C=C(/c1ccc(Br)cc1)c1cccnc1 [ZIMELDINE] | is not a substrate [-] | Activity [24]: is not an inhibitor [-]
